According to ChEMBL document CHEMBL4622859, “Discovery of stereospecific cytotoxicity of (8R,8'R)-trans-arctigenin against insect cells and structure-activity relationship on aromatic ring” (Bioorg Med Chem Lett, 2020):
The source made the active and inactive calls. The rule behind the calls is not given here.

Tests used:
[1] = Cytotoxicity against Spodoptera frugiperda Sf9 cells assessed as reduction in cell viability; format: cell-based
[2] = Cytotoxicity against Aedes albopictus NIAS-AeAl-2 cells assessed as reduction in cell viability; format: functional, cell-based
HL-60 = test: Cytotoxicity against human HL60 cells assessed as reduction in cell viability; format: functional, cell-based
Sf9 = test: Induction of DNA degradation in Spodoptera frugiperda Sf9 cells by DNA ladder assay; format: functional, cell-based
[3] = Effect on 28s ribosomal RNA expression in Spodoptera frugiperda Sf9 cells; format: functional

SMILES | IC50 [1] [µM] | further results
COc1ccc(C[C@H]2COC(=O)[C@@H]2Cc2ccccc2)cc1OC | 19 | –
COc1ccc(C[C@@H]2COC(=O)[C@H]2Cc2ccc(C)cc2)cc1OC | 42 | –
COc1ccc(C[C@H]2COC(=O)[C@@H]2Cc2ccc(F)c(F)c2)cc1OC | 64 | IC50 [2]: 13 µM
COc1ccc(C[C@H]2COC(=O)[C@@H]2Cc2ccc(O)c(C)c2)cc1OC | 11 | –
COc1cc(C[C@H]2COC(=O)[C@@H]2Cc2ccc(I)cc2)ccc1O | 19 | –
COc1ccc(C[C@H]2COC(=O)[C@@H]2Cc2ccc(Br)cc2)cc1OC | 9.1 | –
COc1ccc(C[C@H]2COC(=O)[C@@H]2Cc2ccc(C(C)(C)C)cc2)cc1OC | 17 | –
COc1ccc(C[C@H]2COC(=O)[C@@H]2Cc2ccccc2Cl)cc1OC | 24 | –
COc1ccc(C[C@H]2COC(=S)[C@@H]2Cc2ccccc2C)cc1OC | 19 | –
O=C1OC[C@H](Cc2cccc(O)c2)[C@H]1Cc1ccc(I)cc1 | 18 | –
COc1cc(C[C@H]2C(=O)OC[C@H]2Cc2ccc(OC)c(OC)c2)ccc1O | > 100 | IC50 [2]: 57 µM; IC50 (HL-60): 13 µM
COc1ccc(C[C@@H]2COC(=O)[C@H]2Cc2ccc(O)cc2)cc1OC | 29 | –
COc1cc(C[C@@H]2C(=O)OC[C@@H]2Cc2ccc(OC)c(OC)c2)ccc1O | 13 | IC50 [2]: 6.3 µM; IC50 (HL-60): 8.5 µM
COc1cc(C[C@H]2C(=O)OC[C@@H]2Cc2ccc(OC)c(OC)c2)ccc1O [ARCTIGENIN] | 6.7 | IC50 [2]: 0.73 µM; IC50 (HL-60): 13 µM; Activity (Sf9): inactive; Activity [3]: Active
Cc1ccc(C[C@H]2COC(=O)[C@@H]2Cc2ccc(I)cc2)cc1 | 20 | –
COc1ccc(C[C@H]2COC(=O)[C@@H]2Cc2ccccc2F)cc1OC | 43 | –
O=C1OC[C@H](Cc2ccccc2F)[C@H]1Cc1ccc(I)cc1 | 20 | –
COc1ccc(C[C@H]2COC(=O)[C@@H]2Cc2ccc3c(c2)OCCO3)cc1OC | 15 | –
COc1ccc(C[C@H]2COC(=O)[C@@H]2Cc2cccc(O)c2)cc1OC | 22 | –
O=C1OC[C@H](Cc2ccc3c(c2)OCO3)[C@H]1Cc1ccc(I)cc1 | 12 | –
COc1ccc(C[C@H]2C(=O)OC[C@@H]2Cc2ccc(OC)c(OC)c2)cc1 | 11 | IC50 [2]: 4.3 µM
COc1cc(C[C@@H]2C(=O)OC[C@H]2Cc2ccc(OC)c(OC)c2)ccc1O | 80 | IC50 [2]: 28 µM; IC50 (HL-60): 23 µM; Activity [3]: Active
O=C1OC[C@H](Cc2ccc(O)cc2)[C@H]1Cc1ccc(I)cc1 | 21 | –
COc1ccc(C[C@H]2COC(=O)[C@@H]2Cc2ccc(I)cc2)cc1 | 21 | –
COc1ccc(C[C@H]2COC(=O)[C@@H]2Cc2ccc(Cl)cc2)cc1OC | 10 | IC50 [2]: 2.3 µM

SMILES | IC50 [1] [µM] | further results
COc1ccc(C[C@@H]2COC(=O)[C@H]2Cc2ccc(I)cc2)cc1OC | 25 | –
COc1cccc(C[C@H]2COC(=O)[C@@H]2Cc2ccc(I)cc2)c1 | 15 | –
COc1ccc(C[C@H]2COC(=O)[C@@H]2Cc2cc(F)c(F)c(F)c2)cc1OC | 44 | –
COc1ccc(C[C@H]2COC(=O)[C@@H]2Cc2ccc(C)cc2)cc1OC | 11 | IC50 [2]: 3.5 µM
COc1ccc(C[C@H]2COC(=O)[C@@H]2Cc2cccc(F)c2)cc1OC | 23 | –
COc1ccc(C[C@H]2COC(=O)[C@@H]2Cc2ccc(C)c(C)c2)cc1OC | 9.3 | –
O=C1OC[C@H](Cc2ccccc2Cl)[C@H]1Cc1ccc(I)cc1 | 21 | –
COc1ccc(C[C@H]2COC(=S)[C@@H]2Cc2ccc3c(c2)OCO3)cc1OC | 7.2 | –
COc1ccc(C[C@H]2COC(=O)[C@@H]2Cc2ccccc2C)cc1OC | 28 | –
O=C1OC[C@H](Cc2cccc(Cl)c2)[C@H]1Cc1ccc(I)cc1 | 27 | –
COc1ccc(C[C@H]2COC(=S)[C@@H]2Cc2cc(F)c(F)c(F)c2)cc1OC | 22 | IC50 [2]: 15 µM
COc1ccc(C[C@H]2COC(=O)[C@@H]2Cc2ccccc2I)cc1OC | 18 | –
COc1ccc(C[C@H]2COC(=O)[C@@H]2Cc2ccc3c(c2)OCO3)cc1OC [(-)-KUSUNOKININ] | 8.2 | IC50 [2]: 2.7 µM
COc1ccccc1C[C@H]1COC(=O)[C@@H]1Cc1ccc(I)cc1 | 22 | –
O=C1OC[C@H](Cc2cccc(C(F)(F)F)c2)[C@H]1Cc1ccc(I)cc1 | 19 | –
COc1ccc(C[C@H]2COC(=O)[C@@H]2Cc2ccc(I)cc2)cc1O | 21 | –
Cc1ccccc1C[C@H]1COC(=O)[C@@H]1Cc1ccc(I)cc1 | 21 | –
COc1ccc(C[C@H]2C(=O)OC[C@@H]2Cc2ccc(OC)c(OC)c2)cc1O | 19 | –
COc1ccc(C[C@H]2COC(=O)[C@@H]2Cc2cc(OC)c(O)c(OC)c2)cc1OC | 9.1 | –
O=C1OC[C@H](Cc2ccc(C(F)(F)F)cc2)[C@H]1Cc1ccc(I)cc1 | 15 | –
COc1ccc(C[C@H]2COC(=O)[C@@H]2Cc2ccc(O)c(O)c2)cc1OC | 10 | –
COc1ccc(C[C@@H]2COC(=O)[C@H]2Cc2ccc3c(c2)OCO3)cc1OC | 41 | –
COc1ccc(C[C@H]2COC(=O)[C@@H]2Cc2ccccc2C(F)(F)F)cc1OC | 25 | –
CCc1ccc(C[C@H]2C(=O)OC[C@@H]2Cc2ccc(OC)c(OC)c2)cc1 | 17 | –
COc1ccc(C[C@H]2COC(=O)[C@@H]2Cc2cccc(C(F)(F)F)c2)cc1OC | 19 | –

SMILES | IC50 [1] [µM] | further results
COc1ccc(C[C@@H]2C(=O)OC[C@H]2Cc2ccc(OC)c(OC)c2)cc1 | 47 | –
COc1ccc(C[C@H]2COC(=O)[C@@H]2Cc2ccccc2O)cc1OC | 54 | IC50 [2]: 17 µM
O=C1OC[C@H](Cc2ccc3c(c2)OCCO3)[C@H]1Cc1ccc(I)cc1 | 10 | –
COc1ccc(C[C@H]2COC(=S)[C@@H]2Cc2ccc(I)cc2)cc1OC | 4.7 | IC50 [2]: 2.4 µM
COc1ccc(C[C@H]2COC(=O)[C@@H]2Cc2cccc(C)c2)cc1OC | 12 | –
COc1ccc(C[C@H]2COC(=O)[C@@H]2Cc2cccc(Cl)c2)cc1OC | 17 | –
COc1ccccc1C[C@H]1C(=O)OC[C@@H]1Cc1ccc(OC)c(OC)c1 | 24 | –
COc1cccc(C[C@H]2C(=O)OC[C@@H]2Cc2ccc(OC)c(OC)c2)c1 | 17 | –
COc1ccc(C[C@H]2COC(=O)[C@@H]2Cc2ccc(Cl)c(Cl)c2)cc1OC | 25 | –
O=C1OC[C@H](Cc2ccccc2)[C@H]1Cc1ccc(I)cc1 | 24 | –
O=C1OC[C@H](Cc2ccccc2C(F)(F)F)[C@H]1Cc1ccc(I)cc1 | 24 | –
O=C1OC[C@H](Cc2ccc(Cl)cc2)[C@H]1Cc1ccc(I)cc1 | 18 | –
COc1ccc(C[C@H]2COC(=O)[C@@H]2Cc2ccc(F)cc2)cc1OC | 28 | IC50 [2]: 8.3 µM
COc1ccc(C[C@H]2COC(=O)[C@@H]2Cc2ccc(OC)c(OC)c2)cc1OC | 15 | –
O=C1OC[C@H](Cc2ccc(F)cc2)[C@H]1Cc1ccc(I)cc1 | 22 | –
Cc1cccc(C[C@H]2COC(=O)[C@@H]2Cc2ccc(I)cc2)c1 | 24 | –
O=C1OC[C@H](Cc2ccccc2O)[C@H]1Cc1ccc(I)cc1 | 18 | –
COc1ccc(C[C@H]2COC(=O)[C@@H]2Cc2ccc(O)cc2)cc1OC | 9.9 | IC50 [2]: 1 µM
O=C1OC[C@H](Cc2cccc(F)c2)[C@H]1Cc1ccc(I)cc1 | 22 | –
COc1ccc(C[C@@H]2COC(=O)[C@H]2Cc2ccc(Cl)cc2)cc1OC | 40 | –
COc1ccc(C[C@H]2COC(=O)[C@@H]2Cc2ccc(I)cc2)cc1OC | 6.3 | IC50 [2]: 2.9 µM
COc1ccc(C[C@H]2COC(=O)[C@@H]2Cc2ccc(C(F)(F)F)cc2)cc1OC | 20 | IC50 [2]: 10 µM
COc1ccc(C[C@H]2COC(=O)[C@@H]2Cc2cccc(I)c2)cc1OC | 5.4 | –
COc1ccc(C[C@H]2COC(=O)[C@@H]2Cc2cccc3c2OCO3)cc1OC | 46 | –
